Measured values taken from the NIST ThermoML archive (doi:10.1021/je050328d).
“And” between values parts separate entries of the source, which are not always exact repeats. Equal values may be shown once. Numbers after ± are expanded uncertainties.

Conditions: meniscus disappearance in a closed cell

CC(C)C [2-methylpropane]
Conditions	mass density
390.4 K, Liquid	388.9 ± 1.2 kg/m3
391.4 K, Gas	90.6 ± 1.2 kg/m3
393.73 K, Gas	98.2 ± 1.2 kg/m3
394.98 K, Gas	101.1 ± 1.2 kg/m3
397.49 K, Liquid	358.7 ± 1.2 kg/m3
398.81 K, Gas	114.2 ± 1.2 kg/m3
400.69 K, Liquid	341.9 ± 1.2 kg/m3
402.34 K, Liquid	330.3 ± 1.2 kg/m3
404.54 K, Gas	142 ± 1.2 kg/m3
405.22 K, Liquid	308.1 ± 1.2 kg/m3
406.17 K, Gas	160.4 ± 1.2 kg/m3
406.71 K, Liquid	289.4 ± 1.3 kg/m3
406.96 K, Liquid	284.3 ± 1.3 kg/m3
407.03 K, Gas	173.9 ± 1.3 kg/m3
407.21 K, Gas	179.1 ± 1.3 kg/m3
407.52 K, Liquid	271 ± 1.5 kg/m3
407.65 K, Gas	192.9 ± 2.2 kg/m3
407.75 K, Liquid	244.3 ± 6.9 kg/m3
407.76 K, Gas	202.3 ± 4.2 kg/m3
407.79 K, Gas	219.3 ± 11 kg/m3 and 225.4 ± 14 kg/m3
407.8 K, Liquid	229.4 ± 6.9 kg/m3
